pIC50: −log10 of the molar value.
Biological target: full-length recombinant human NEK7 (Homo sapiens (Human), UniProt Q8TDX7)
Test: NEK7 Enzymatic Assay ([33P]-ATP, casein substrate)
Type: biochemical
Procedure: Casein substrate (from bovine milk, hydrolyzed and partially dephosphorylated mixture of α, β and a caseins, obtained from Sigma Aldrich, catalogue #C4765, diluted in distilled water to a final concentration of 1 mg/mL) and full-length recombinant human NEK7 (expressed by baculovirus in Sf9 insect cells using a N-terminal GST tag, obtained from SignalChem, catalogue #N09-10G, 0.1 μg/μL) were mixed in assay buffer (20 mM Hepes pH 7.5, 10 mM MgCl2, 1 mM EGTA, 0.02% Brij35, 0.02 mg/ml BSA, 0.1 mM Na3VO4, 2 mM DTT, 1% DMSO). Compounds of interest (serial 3-fold dilution in DMSO from 10 μM to 0.5 nM) or vehicle (1% DMSO) were dispensed into the kinase reaction mixture by Acoustic technology (Echo550; nanoliter range). After incubation at room temperature for 20 minutes, the kinase reaction was initiated by addition of [^33P]-ATP (specific activity […]) and the mixture was incubated at room temperature for 2 hours. The reaction was then stopped by spotting the reaction mixture on strips of phosphocellulose P81 paper. Following washing, the radioactivity of the P81 paper was measured and kinase activity data were expressed as the percent remaining kinase activity in test samples compared to vehicle reactions. IC50 values and curve fits were obtained using Prism (GraphPad Software).

Chain of full-length recombinant human NEK7 (Q8TDX7 whole entry): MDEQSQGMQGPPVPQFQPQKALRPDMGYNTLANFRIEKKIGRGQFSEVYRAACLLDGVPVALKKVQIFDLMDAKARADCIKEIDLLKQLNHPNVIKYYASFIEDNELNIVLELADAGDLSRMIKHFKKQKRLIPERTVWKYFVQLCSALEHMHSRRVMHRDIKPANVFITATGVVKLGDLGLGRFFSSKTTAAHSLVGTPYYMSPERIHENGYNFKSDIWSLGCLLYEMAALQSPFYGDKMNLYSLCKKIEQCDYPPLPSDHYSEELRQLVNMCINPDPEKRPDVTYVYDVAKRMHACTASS

| Compound | pIC50 |
| --- | --- |
| 1-(4-(4-amino-7-(2-hydroxy-2-methylpropyl)-7H-pyrrolo[2,3-d]pyrimidin-5-yl)-2-fluorophenyl)-3-(5-(1-(trifluoromethyl)cyclopropyl)isoxazol-3-yl)urea [Example 47] | > 6.82 |
| CC(C)(C)c1cc(NC(=O)Nc2ccc(-c3cn(C4COC4)c4ncnc(N)c34)cc2)on1 [Example 1, 1-(4-(4-amino-7-(oxetan-3-yl)-7H-pyrrolo[2,3-d]pyrimidin-5-yl)phenyl)-3-(3-(tert-butyl)isoxazol-5-yl)urea] | 6.52 to 6.82 |
| Nc1ncnc2c1c(-c1ccc(NC(=O)Nc3cc(C4CC4)on3)c(F)c1)cn2C1CC1 [Example 6] | 6.30 to 6.52 |
| Cc1cc(NC(=O)Nc2ccc(-c3cn(C4CC4)c4ncnc(N)c34)cc2F)on1 [Example 7, 1-(4-(4-amino-7-cyclopropyl-7H-pyrrolo[2,3-d]pyrimidin-5-yl)-2-fluorophenyl)-3-(3-methylisoxazol-5-yl)urea] | 5.82 to 6.30 |
| Cc1cc(NC(=O)Nc2ccc(-c3cn(C4CC4)c4ncnc(N)c34)cc2F)no1 [Example 8, 1-(4-(4-amino-7-cyclopropyl-7H-pyrrolo[2,3-d]pyrimidin-5-yl)-2-fluorophenyl)-3-(5-methylisoxazol-3-yl)urea] | 5.82 to 6.30 |
| Nc1ncnc2c1c(-c1ccc(NC(=O)Nc3cc(C4(C(F)(F)F)CC4)no3)cc1F)cn2C1CC1 [Example 11, 1-(4-(4-amino-7-cyclopropyl-7H-pyrrolo[2,3-d]pyrimidin-5-yl)-3-fluorophenyl)-3-(3-(1-(trifluoromethyl)cyclopropyl)isoxazol-5-yl)urea] | 6.30 to 6.52 |
| CC(C)(C)c1cc(NC(=O)Nc2ccc(-c3cn(C4CC4)c4ncnc(N)c34)cc2)on1 [Example 13, 1-(4-(4-amino-7-cyclopropyl-7H-pyrrolo[2,3-d]pyrimidin-5-yl)phenyl)-3-(3-(tert-butyl)isoxazol-5-yl)urea] | 6.30 to 6.52 |
| CC(C)(C)c1nnc(NC(=O)Nc2ccc(-c3cn(C4CC4)c4ncnc(N)c34)cc2F)s1 [Example 19, 1-(4-(4-amino-7-cyclopropyl-7H-pyrrolo[2,3-d]pyrimidin-5-yl)-2-fluorophenyl)-3-(5-(tert-butyl)-1,3,4-thiadiazol-2-yl)urea] | 6.30 to 6.52 |
| CC(C)(C)n1cnc(NC(=O)Nc2ccc(-c3cn(C4CC4)c4ncnc(N)c34)cc2F)n1 [Example 22, 1-(4-(4-amino-7-cyclopropyl-7H-pyrrolo[2,3-d]pyrimidin-5-yl)-2-fluorophenyl)-3-(1-(tert-butyl)-1H-1,2,4-triazol-3-yl)urea] | < 5.82 |
| CC(C)(C)c1nnc(NC(=O)Nc2ccc(-c3cn(C4CC4)c4ncnc(N)c34)cc2F)o1 [Example 23, 1-(4-(4-amino-7-cyclopropyl-7H-pyrrolo[2,3-d]pyrimidin-5-yl)-2-fluorophenyl)-3-(5-(tert-butyl)-1,3,4-oxadiazol-2-yl)urea] | 6.30 to 6.52 |
| Nc1ncnc2c1c(-c1ccc(NC(=O)Nc3cc(C4(C(F)(F)F)CC4)no3)c(F)c1)cn2-c1ccncc1 [Example 25] | 5.82 to 6.30 |
| CN1CCC(n2cc(-c3ccc(NC(=O)Nc4cc(C5(C(F)(F)F)CC5)no4)c(F)c3)c3c(N)ncnc32)CC1 [Example 26, 1-(4-(4-amino-7-(1-methylpiperidin-4-yl)-7H-pyrrolo[2,3-d]pyrimidin-5-yl)-2-fluorophenyl)-3-(3-(1-(trifluoromethyl)cyclopropyl)isoxazol-5-yl)urea] | 6.30 to 6.52 |
| Nc1ncnc2c1c(-c1ccc(NC(=O)Nc3cc(C(F)(F)F)no3)c(F)c1)cn2C1CC1 [Example 28, 1-(4-(4-amino-7-cyclopropyl-7H-pyrrolo[2,3-d]pyrimidin-5-yl)-2-fluorophenyl)-3-(3-(trifluoromethyl)isoxazol-5-yl)urea] | 6.52 to 6.82 |
| CCC(C)c1cc(NC(=O)Nc2ccc(-c3cn(C4CC4)c4ncnc(N)c34)cc2F)on1 (stereo not drawn) [Example 30, 1-(4-(4-amino-7-cyclopropyl-7H-pyrrolo[2,3-d]pyrimidin-5-yl)-2-fluorophenyl)-3-(3-(sec-butyl)isoxazol-5-yl)urea] | 6.52 to 6.82 |
| CC(C)c1cc(NC(=O)Nc2ccc(-c3cn(C4CC4)c4ncnc(N)c34)cc2F)on1 [Example 32, 1-(4-(4-amino-7-cyclopropyl-7H-pyrrolo[2,3-d]pyrimidin-5-yl)-2-fluorophenyl)-3-(3-isopropylisoxazol-5-yl)urea] | > 6.82 |
| Nc1ncnc2c1c(-c1ccc(NC(=O)Nc3cc(CO)no3)c(F)c1)cn2C1CC1 [Example 36, 1-(4-(4-amino-7-cyclopropyl-7H-pyrrolo[2,3-d]pyrimidin-5-yl)-2-fluorophenyl)-3-(3-(hydroxymethyl)isoxazol-5-yl)urea] | 5.82 to 6.30 |
| Nc1ncnc2c1c(-c1cc(F)c(NC(=O)Nc3cc(C4(C(F)(F)F)CC4)no3)c(F)c1)cn2C1CC1 [Example 41, 1-(4-(4-amino-7-cyclopropyl-7H-pyrrolo[2,3-d]pyrimidin-5-yl)-2,6-difluorophenyl)-3-(3-(1-(trifluoromethyl)cyclopropyl)isoxazol-5-yl)urea] | < 5.82 |

Second part, the compound after the results:

| pIC50 | Compound |
| --- | --- |
| > 6.82 | CC(C)(C)c1cc(NC(=O)Nc2ccc(-c3cn(C4CC4)c4ncnc(N)c34)cc2F)no1 [Example 4, 1-(4-(4-amino-7-cyclopropyl-7H-pyrrolo[2,3-d]pyrimidin-5-yl)-2-fluorophenyl)-3-(5-(tert-butyl)isoxazol-3-yl)urea] |
| 6.52 to 6.82 | CC(C)(c1cc(NC(=O)Nc2ccc(-c3cn(C4CC4)c4ncnc(N)c34)cc2F)on1)C(F)(F)F [Example 12, 1-(4-(4-amino-7-cyclopropyl-7H-pyrrolo[2,3-d]pyrimidin-5-yl)-2-fluorophenyl)-3-(3-(1,1,1-trifluoro-2-methylpropan-2-yl)isoxazol-5-yl)urea] |
| < 5.82 | CC(C)(C)c1cc(NC(=O)NC2CCC(c3cn(C4CC4)c4ncnc(N)c34)CC2)on1 (stereo not drawn) [Example 16, 1-(4-(4-amino-7-cyclopropyl-7H-pyrrolo[2,3-d]pyrimidin-5-yl)cyclohexyl)-3-(3-(tert-butyl)isoxazol-5-yl)urea] |
| < 5.82 | CC(C)(C)c1csc(NC(=O)Nc2ccc(-c3cn(C4CC4)c4ncnc(N)c34)cc2F)n1 [Example 18, 1-(4-(4-amino-7-cyclopropyl-7H-pyrrolo[2,3-d]pyrimidin-5-yl)-2-fluorophenyl)-3-(4-(tert-butyl)thiazol-2-yl)urea] |
| < 5.82 | CC(C)(C)c1cc(NC(=O)Nc2ccc(-c3cn(C4CC4)c4ncnc(N)c34)cc2F)sn1 [Example 20, 1-(4-(4-amino-7-cyclopropyl-7H-pyrrolo[2,3-d]pyrimidin-5-yl)-2-fluorophenyl)-3-(3-(tert-butyl)isothiazol-5-yl)urea] |
| < 5.82 | CC(C)(C)c1nsc(NC(=O)Nc2ccc(-c3cn(C4CC4)c4ncnc(N)c34)cc2F)n1 [Example 21, 1-(4-(4-amino-7-cyclopropyl-7H-pyrrolo[2,3-d]pyrimidin-5-yl)-2-fluorophenyl)-3-(3-(tert-butyl)-1,2,4-thiadiazol-5-yl)urea] |
| 5.82 to 6.30 | Nc1ncnc2c1c(-c1ccc(NC(=O)Nc3cc(C4(C(F)(F)F)CC4)no3)c(F)c1)cn2-c1cccnc1 [Example 24, 1-(4-(4-amino-7-(pyridin-3-yl)-7H-pyrrolo[2,3-d]pyrimidin-5-yl)-2-fluorophenyl)-3-(3-(1-(trifluoromethyl)cyclopropyl)isoxazol-5-yl)urea] |
| > 6.82 | CC1(c2cc(NC(=O)Nc3ccc(-c4cn(C5CC5)c5ncnc(N)c45)cc3F)on2)COC1 [Example 27, 1-(4-(4-amino-7-cyclopropyl-7H-pyrrolo[2,3-d]pyrimidin-5-yl)-2-fluorophenyl)-3-(3-(3-methyloxetan-3-yl)isoxazol-5-yl)urea] |
| 6.30 to 6.52 | CC(C)(CO)c1cc(NC(=O)Nc2ccc(-c3cn(C4CC4)c4ncnc(N)c34)cc2F)on1 [Example 29, 1-(4-(4-amino-7-cyclopropyl-7H-pyrrolo[2,3-d]pyrimidin-5-yl)-2-fluorophenyl)-3-(3-(1-hydroxy-2-methylpropan-2-yl)isoxazol-5-yl)urea] |
| 6.30 to 6.52 | CCC(CC)c1cc(NC(=O)Nc2ccc(-c3cn(C4CC4)c4ncnc(N)c34)cc2F)on1 [Example 31, 1-(4-(4-amino-7-cyclopropyl-7H-pyrrolo[2,3-d]pyrimidin-5-yl)-2-fluorophenyl)-3-(3-(pentan-3-yl)isoxazol-5-yl)urea] |
| > 6.82 | CCc1cc(NC(=O)Nc2ccc(-c3cn(C4CC4)c4ncnc(N)c34)cc2F)on1 [Example 33, 1-(4-(4-amino-7-cyclopropyl-7H-pyrrolo[2,3-d]pyrimidin-5-yl)-2-fluorophenyl)-3-(3-ethylisoxazol-5-yl)urea] |
| < 5.82 | Cc1cc(-c2cn(C3CC3)c3ncnc(N)c23)ncc1NC(=O)Nc1cc(C2(C(F)(F)F)CC2)no1 [Example 40, 1-(6-(4-amino-7-cyclopropyl-7H-pyrrolo[2,3-d]pyrimidin-5-yl)-4-methylpyridin-3-yl)-3-(3-(1-(trifluoromethyl)cyclopropyl)isoxazol-5-yl)urea] |
| 5.82 to 6.30 | Nc1ncnc2c1c(-c1cc(F)c(NC(=O)Nc3cc(C4(C(F)(F)F)CC4)no3)cc1F)cn2C1CC1 [Example 42, 1-(4-(4-amino-7-cyclopropyl-7H-pyrrolo[2,3-d]pyrimidin-5-yl)-2,5-difluorophenyl)-3-(3-(1-(trifluoromethyl)cyclopropyl)isoxazol-5-yl)urea] |
